In patent US20160206597A1, “New Use” (priority 2013, published 2016):

What was measured:
[1] = test system: patients with chronic heart failure with preserved left-ventricular ejection fraction (HF-PEF); test: NT-proBNP in 36-week randomized double-blind study of LCZ696 vs valsartan; assay type: in vivo, human; details: for NT-proBNP at 12 weeks / NT-proBNP at 36 weeks / NT-proBNP, Baseline (12-week analysis) / NT-proBNP, Baseline (36-week analysis): geometric mean; for NT-proBNP at 12 weeks / NT-proBNP at 36 weeks: LCZ696 200 mg or valsartan 160 mg twice daily; for NT-proBNP, Baseline (12-week analysis) / NT-proBNP, Baseline (36-week analysis): baseline before treatment; for NT-proBNP, Baseline (12-week analysis): patients evaluated at 12 weeks; for NT-proBNP, Baseline (36-week analysis): patients evaluated at 36 weeks; for Ratio of change in NT-proBNP (LCZ696/valsartan) at 12 weeks: baseline to 12 weeks, 95% CI 0.64-0.92, p = 0.005
Text: (§1) Men and women aged 40 years or older with a left ventricular ejection fraction of 45% or above, and a documented history of heart failure with associated signs or symptoms (dyspnea on exertion, orthopnea, paroxysmal dyspnea, and peripheral edema) are eligible. Patients are required to have an NT-proBNP >400 pg/mL at screening, be on diuretic therapy, and have a systolic blood pressure less than 140 mm Hg, or 160 mm Hg or less if on three or more blood pressure medications at randomization. Additional inclusion criteria include an estimated glomerular filtration rate (eGFR) of at least 30 ml/min/1.73 m^2 at screening (calculated by the Modification of Diet in Renal Disease formula) and a potassium concentration of no more than 5.2 mmol/L.
Patients are excluded if they had prior left ventricular ejection fraction less than 45% at any time, isolated right heart failure due to pulmonary disease, dyspnea due to non-cardiac causes such as pulmonary disease, anemia, or severe obesity, primary valvular or myocardial diseases, or coronary artery or cerebrovascular disease requiring revascularization within 3 months of screening or likely to require revascularization during the trial.

[2] = test system: patients with chronic heart failure with preserved left-ventricular ejection fraction (HF-PEF); test: Echocardiographic parameters in the 36-week HF-PEF study; assay type: in vivo, human; details: for LA Volume Index, Δ from Baseline / LA Volume, Δ from Baseline / LA dimension, Δ from Baseline / LV mass index, Δ from Baseline / Relative wall thickness, Δ from Baseline: at 36 weeks
Description: Echocardiographic studies are performed at screening, randomization, at week 12, and week 36 or at end of study or early termination visits. Echocardiograms performed at screening are evaluated by local readers for qualifying information. All other echocardiograms are only performed in patients meeting NT-proBNP entry criterion and are evaluated centrally. For assessment of global ventricular size and function, left ventricular end-diastolic and end-systolic volumes are obtained utilizing the Simpson's rule method and left ventricular ejection fraction is derived in the usual fashion. Maximal left atrial dimension is measured in the parasternal long-axis view, and left atrial volume is assessed with the Simpson's rule method and indexed to body surface area. Measurements are made in triplicate in accordance with the recommendations of the American Society of Echocardiography. Blood pressure and heart rate are measured at all study visits with a calibrated standard sphygmomanometer and appropriate size cuff. The use of concomitant medication is recorded at each study visit.

[3] = test system: patients with chronic heart failure with preserved left-ventricular ejection fraction (HF-PEF); test: Renal function parameters (eGFR, serum creatinine, urinary albumin creatinine ratio) in the 36-week HF-PEF study; assay type: in vivo, human; details: for urinary albumin creatinine ratio at baseline: baseline before treatment; for eGFR decrease over 36 weeks: p=0.007; for urinary albumin creatinine ratio at week 36: p=0.02 between groups
Description: The term “eGFR” refers to estimated glomerular filtration rate. Within the context of the present invention the eGFR is calculated by the Modification in Diet in Renal Disease (MDRD) formula, which is the one recommended by NICE and The Renal Association (UK), and which is based on the equation described in Levey A S, Bosch J P, Lewis J B, et al; “A more accurate method to estimate glomerular filtration rate from serum creatinine: a new prediction equation. Modification of Diet in Renal Disease Study Group.” Ann Intern Med. 1999 Mar. 16; 130(6):461-70.
as §1

[4] = test system: patients with chronic heart failure with preserved left-ventricular ejection fraction (HF-PEF); test: Safety and tolerability in the 36-week HF-PEF study; details: 36-week study
Description: (§2) Eligible patients are enrolled into a 2-week, single-blind placebo run-in period, during which time they continue their background medications. ACE inhibitors and angiotensin receptor blockers are required to be discontinued 24 hours prior to randomization.
(§3) At the investigator's discretion, patients are allowed to stay on each titration dose for an additional week. […] Patients remain on these doses for the remainder of the study, although those not tolerating the maximum dose of study medication could be down-titrated to a lower dose at the Investigator's discretion and then re-challenged to the maximum dose of study medication, or remain on the lower dose.

[5] = test system: patients with chronic heart failure with preserved left-ventricular ejection fraction (HF-PEF); test: NYHA class, clinical composite assessment and KCCQ in the 36-week HF-PEF study; details: p=0.05
Description: as §2, §3
The primary study endpoint is the change from baseline in NT-proBNP assessed at 12 weeks, and is analyzed using the last observation after baseline carried forward. […]
The clinical composite assessment is based on a composite of the NYHA functional classification, patient global assessment and major adverse clinical events. […] Patients are determined to be worse if at the endpoint visit they experienced a major adverse cardiac event during the double blind treatment or reported worsening of their NYHA class or patient global assessment. […]

Row | Compound | NT-proBNP at 12 weeks ([1]; 12 weeks) [pg/mL] | NT-proBNP at 36 weeks [1] [pg/mL] | NT-proBNP, Baseline (12-week analysis) [1] [pg/mL] | NT-proBNP, Baseline (36-week analysis) [1] [pg/mL] | LA Volume Index, Δ from Baseline [2] [ml/m^2] | LA Volume, Δ from Baseline [2] [mL] | LA dimension, Δ from Baseline [2] [cm] | LV mass index, Δ from Baseline [2] [g/m^2] | Relative wall thickness, Δ from Baseline [2] | LA Volume Index, Baseline ([2]; baseline before treatment) [ml/m^2] | LA Volume, Baseline ([2]; baseline before treatment) [mL] | LA dimension, Baseline ([2]; baseline before treatment) [cm] | LV mass index, Baseline ([2]; baseline before treatment) [g/m^2] | urinary albumin creatinine ratio at baseline [3] [mg/mmol] | eGFR decrease over 36 weeks [3] [mL/min per 1.73 m^2] | urinary albumin creatinine ratio at week 36 [3] [mg/mmol] | further results
1 | CCCCC(=O)N(Cc1ccc(-c2ccccc2-c2nnn[nH]2)cc1)[C@H](C(=O)O)C(C)C [Valsartan, (S)—N-valeryl-N-{[2′-(1H-tetrazole-5-yl)-biphenyl-4-yl]-methyl}-valine, reference compound] | 835 | 607 | 862 | 822 | 0.31 | 0.37 | −0.08 | −1.93 | +0.01% | 36.80 | 68.28 | 3.73 | 79.45 | 2.0 | −5.2 | 2.0 | Adverse event atrial fibrillation (number of patients) [4]: 8 patients; Adverse event atrial fibrillation (percent of patients) [4]: 5.3%; Angio-oedema occurrence [4]: no patients; Deaths among serious adverse events [4]: two deaths; Patients with one or more serious adverse events (number) [4]: 30 patients; Patients with one or more serious adverse events (percent) [4]: 20%
2 | trisodium [3-((1S,3R)-1-biphenyl-4-ylmethyl-3-ethoxycarbonyl-1-butylcarbamoyl) propionate-(S)-3′-methyl-2′-(pentanoyl{2″-(tetrazol-5-ylate)biphenyl-4′-ylmethyl}amino)butyrate]hemipentahydrate [LCZ696] | 605 | 496 | 783 | 763 | −2.61 | -4.61 | −0.15 | −2.78 | +0.01% | 35.01 | 65.26 | 3.68 | 76.56 | 1.9 | −1.6 | 2.9 | Reduction in NT-proBNP versus valsartan after adjustment for the change in blood pressure ([1]; 12 weeks, p=0.01): greater reduction; Early reduction in NT-proBNP compared with the valsartan group ([1]; after 4 weeks of treatment, p=0.063): not significant; Ratio of change in NT-proBNP (LCZ696/valsartan) at 12 weeks [1]: 0.77; Ratio of change in NT-proBNP (LCZ696/valsartan) at 12 weeks ([1]; listed as LZC696): 0.77 (95% CI; Ratio of change in NT-proBNP (LCZ696/valsartan) at 36 weeks ([1]; baseline to 36 weeks, 95% CI 0.65-1.09, p = 0.20): 0.85 (95% CI; Left atrial volume, left atrial volume index (LAVI) and left atrial dimension, result in words ([2]; after 36 weeks of treatment, p=0.003, 0.007 and 0.034): reduced significantly; Relative wall thickness, Baseline ([2]; baseline before treatment): 0.37; Preservation of renal function compared with valsartan ([3]; after 36 weeks of therapy, eGFR and creatinine data): better preserved renal function; eGFR, LSM of difference (95% CI), LCZ696 vs. Valsartan ([3]; at 36 weeks, P 0.0163): 3.46 (0.64, 6.27) mL/min/1.73 m^2; Serum creatinine, LSM of difference (95% CI), LCZ696 vs. Valsartan ([3]; at 36 weeks, P 0.0193): −4.83 (−8.87, −0.79) μmol/L; NYHA class at 36 weeks compared with the valsartan group [5]: improvement in NYHA class
